Assays:
Experiment in all cases: relative viability (nuclei count vs DMSO), 5 days (fraction); higher = more cells survive
Ruxolitinib + Alpelisib = compound: N#CC[C@H](C1CCCC1)n1cc(-c2ncnc3[nH]ccc23)cn1 [Ruxolitinib] + Cc1nc(NC(=O)N2CCC[C@H]2C(N)=O)sc1-c1ccnc(C(C)(C)C(F)(F)F)c1 [Alpelisib] (partner 2 µM)
Method in brief: (§1)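 Five library-drug doses in √10 steps were combined with a fixed anchor-drug dose, or a single drug was given alone, by pin tool to lung cancer cell lines in 1536-well plates the day after seeding. Nuclei were stained and counted after 5 days. Relative viability is the nuclei count in treated wells over that in vehicle wells, taken as the median of duplicate plates.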

Ruxolitinib + Decitabine = compound: N#CC[C@H](C1CCCC1)n1cc(-c2ncnc3[nH]ccc23)cn1 [Ruxolitinib] + Nc1ncn([C@H]2C[C@H](O)[C@@H](CO)O2)c(=O)n1 [Decitabine] (partner 2 µM)
Method in brief: as §1

Vismodegib + Tozasertib = compound: CS(=O)(=O)c1ccc(C(=O)Nc2ccc(Cl)c(-c3ccccn3)c2)c(Cl)c1 [Vismodegib] + Cc1cc(Nc2cc(N3CCN(C)CC3)nc(Sc3ccc(NC(=O)C4CC4)cc3)n2)n[nH]1 [Tozasertib] (partner 0.1 µM)
Method in brief: as §1

[1] = compound: N#CC[C@H](C1CCCC1)n1cc(-c2ncnc3[nH]ccc23)cn1 [Ruxolitinib] + CC(=O)c1c(C)c2cnc(Nc3ccc(N4CCNCC4)cn3)nc2n(C2CCCC2)c1=O [Palbociclib] (partner 0.5 µM)
Method in brief: as §1

Cell Line | relative viability (Ruxolitinib + Alpelisib; first compound 0.253 µM) | relative viability (Ruxolitinib + Alpelisib; first compound 0.8 µM) | relative viability (Ruxolitinib + Alpelisib; first compound 2.53 µM) | relative viability (Ruxolitinib + Alpelisib; first compound 8 µM) | relative viability (Ruxolitinib + Decitabine; first compound 0.08 µM) | relative viability (Ruxolitinib + Decitabine; first compound 0.253 µM) | relative viability (Ruxolitinib + Decitabine; first compound 0.8 µM) | relative viability (Ruxolitinib + Decitabine; first compound 2.53 µM) | relative viability (Ruxolitinib + Decitabine; first compound 8 µM) | relative viability (Vismodegib + Tozasertib; first compound 0.08 µM) | relative viability (Vismodegib + Tozasertib; first compound 0.253 µM) | relative viability (Vismodegib + Tozasertib; first compound 0.8 µM) | relative viability (Vismodegib + Tozasertib; first compound 2.53 µM) | relative viability (Vismodegib + Tozasertib; first compound 8 µM) | relative viability ([1]; first compound 0.08 µM) | relative viability ([1]; first compound 0.253 µM) | relative viability ([1]; first compound 0.8 µM) | relative viability ([1]; first compound 2.53 µM) | relative viability ([1]; first compound 8 µM) | relative viability (Ruxolitinib + Alpelisib; first compound 0.08 µM)
NCI-H520 | 0.837 | 1.04 | 0.988 | 0.756 | 0.506 | 0.484 | 0.553 | 0.47 | 0.525 | 0.392 | 0.452 | 0.481 | 0.385 | 0.433 | 0.243 | 0.218 | 0.251 | 0.204 | 0.258 | –
NCI-H1355 | 0.83 | 0.85 | 0.58 | 0.612 | 0.353 | 0.376 | 0.398 | 0.326 | 0.358 | 0.568 | 0.557 | 0.613 | 0.577 | 0.548 | 0.416 | 0.371 | 0.429 | 0.402 | 0.368 | 0.793
NCI-H1563 | 0.813 | 1 | 0.895 | 0.818 | – | – | – | – | – | – | – | – | – | – | – | – | – | – | – | 0.923
NCI-H1651 | 0.875 | 1.08 | 1.09 | 0.968 | 0.514 | 0.604 | 0.624 | 0.438 | 0.655 | 0.617 | 0.704 | 0.643 | 0.604 | 0.704 | 0.506 | 0.496 | 0.524 | 0.502 | 0.525 | 0.941
HCC-44 | 0.724 | 0.796 | 0.602 | 0.41 | 0.931 | 0.971 | 0.895 | 0.877 | 0.83 | 0.951 | 0.836 | 0.877 | 0.832 | 0.993 | 0.995 | 1.03 | 0.98 | 0.942 | 0.947 | 0.793
NCI-H1437 | 0.807 | 1.01 | 1.03 | 0.795 | 0.716 | 0.623 | 0.631 | 0.634 | 0.603 | 0.395 | 0.398 | 0.396 | 0.38 | 0.392 | 0.541 | 0.41 | 0.448 | 0.417 | 0.378 | 0.871
201T | 1.11 | 1.27 | 1.39 | 1.33 | 0.949 | 0.914 | 1 | 1.02 | 0.973 | 0.914 | 0.919 | 0.987 | 0.946 | 0.966 | 0.366 | 0.362 | 0.407 | 0.433 | 0.397 | 1.11
LCLC-103H | 0.875 | 1.08 | 1.03 | 1.02 | 0.83 | 0.775 | 0.802 | 0.656 | 0.658 | 0.503 | 0.506 | 0.489 | 0.437 | 0.446 | 0.495 | 0.467 | 0.468 | 0.426 | 0.394 | 1.02
NCI-H1915 | 1.04 | 1.11 | 1.04 | 0.966 | 0.262 | 0.278 | 0.275 | 0.237 | 0.233 | 0.431 | 0.386 | 0.466 | 0.413 | 0.414 | 0.515 | 0.516 | 0.579 | 0.443 | 0.481 | 1.06
NCI-H2085 | 1.02 | 1.13 | 0.979 | 0.822 | 0.598 | 0.531 | 0.624 | 0.515 | 0.496 | 0.835 | 0.849 | 0.85 | 0.698 | 0.621 | 0.453 | 0.468 | 0.474 | 0.39 | 0.369 | 0.971
NCI-H2228 | 0.56 | 0.773 | 0.46 | 0.361 | – | – | – | – | – | 0.218 | 0.277 | 0.23 | 0.217 | 0.265 | 0.622 | 0.812 | 0.843 | 0.713 | 0.219 | 0.667
EKVX | 0.862 | 1 | 0.92 | 0.832 | – | 0.3 | 0.35 | 0.337 | 0.414 | 0.392 | 0.358 | 0.409 | 0.414 | 0.373 | – | 0.358 | 0.393 | 0.34 | 0.333 | 0.769
COR-L23 | 0.827 | 0.821 | 0.731 | 0.502 | 0.493 | 0.429 | 0.521 | 0.367 | 0.322 | 0.203 | 0.218 | 0.181 | 0.177 | 0.168 | 0.343 | 0.273 | 0.371 | 0.248 | 0.222 | 0.854
SK-MES-1 | 0.878 | 0.986 | 0.722 | 0.795 | 0.45 | 0.362 | 0.429 | 0.319 | 0.358 | 0.881 | 0.871 | 0.974 | 0.841 | 0.827 | 0.331 | 0.336 | 0.332 | 0.305 | 0.321 | 0.984
A549 | 0.708 | 0.841 | 0.574 | 0.495 | 0.215 | 0.254 | 0.322 | 0.197 | 0.28 | – | – | – | – | – | – | – | – | – | – | 0.775

From the supplement of paper PMC10307832
